Results on four compounds are retold here after patent US12594292B2, “Antiviral prodrugs, intermediate-and long-acting formulations and methods” (priority 2022, dated 2026).

The subject of series [1] is SARS-CoV-2 isolate USA-WA1/2020. The experiment in a line: SARS-CoV-2 infection in PSC-human lung cells, qRT-PCR (Example 7). It is filed as cell-based. Particulars: for EC50 / EC90: PSC-human lung cells, MOI 0.01, 48 hours.
Series [2] concerns Huh7.5 cells. The experiment in a line: Cell viability assay CellTiter-Glo, Huh7.5 cells (Example 7).
Series [3] relates to SARS-CoV-2 isolate USA-WA1/2020. Kind of series: SARS-CoV-2 infection in Huh7.5 cells, qRT-PCR (Example 7). It is filed as cell-based. Particulars: for Selectivity: CC50/EC50, Huh7.5 cells; for EC50 / EC90: Huh7.5 cells, MOI 0.01, 48 hours, qRT-PCR (Example 7).
The subject of series [4] is MRC-5 cells.
In series [5] the test system is VERO E6 cells. Kind of series: CellTiter-Glo luminescent cell viability assay, Vero E6 (Example 3). Type of series: cell-based. Here is the method: CellTiter-glo luminescent cell viability assay: Approximately 10^4 Vero E6 cells per well were seeded in opaque walled 96 well cell culture plates and incubated overnight. Compounds or controls were added at the indicated concentrations. […] Viability was calculated compared to untreated controls and CC50 values were calculated using Prism 8.
Determination of Cytotoxicity: The 50% cytotoxic concentrations (CC50) were determined with Cell Titer Glo (Cat. #G7570, Promega, Madison, WI) according to the manufacturer's instructions. The calculated CC50 values are shown in the foregoing table.
Relative viability was measured by CellTiter-Glo luminescent cell viability assay, as depicted at FIG. 2.

Series [6] deals with SARS-CoV-2 isolate USA-WA1/2020. The experiment in a line: SARS-CoV-2 infection in Vero E6 cells, qRT-PCR of Spike RNA (Example 3). It is filed as cell-based. Particulars: for Selectivity: CC50/EC50, Vero E6; for EC50 / EC90: Vero E6 cells, MOI 0.01, 48 hours, mean±SD.
For series [7], the system named is HCoV-229E. It is filed as cell-based, human Coronavirus 229E.
The test system of series [8] is SARS-CoV-2 isolate USA-WA1/2020. Kind of series: SARS-CoV-2 infection in Vero E6 cells, qRT-PCR (Example 7). Type of series: cell-based. Particulars: for Selectivity: CC50/EC50, Vero E6 cells; for EC50 / EC90: Vero E6 cells, MOI 0.01, 48 hours.
The test system of series [9] is VERO E6 cells. Kind of series: Cell viability assay CellTiter-Glo, Vero E6 cells (Example 7).
Series [10] deals with VERO E6 cells. The experiment in a line: Cellular cytotoxicity in Vero E6 cells, MTT assay (Example 2). It is filed as cell-based. How it is done: (§1) Ten thousand Vero E6 cells were seeded in 100 microliters of culture medium in 96 well plates. The following day serial two-fold dilutions of antiviral compounds or the DMSO-containing vehicle were added to each well. The USA WA-01 strain of SARS CoV-2 was added to each well at a multiplicity of infection of 0.1 thirty minutes later. Cells were incubated for 48 hours, washed twice in PBS and lysed with TRIzol. RNA was extracted using Directzol micro RNA columns. RNA was made into cDNA and assayed for the SARS CoV-2 spike protein and for a housekeeping gene (RPLPO) RNA by qPCR. Data represents the average of duplicate wells. Cellular cytotoxicity was also measured in VERO E6 cells. […] Cytotoxicity (CC50) was assessed using a commercially available MTT assay.

Series [11] deals with Huh7.5 cells. The experiment in a line: Cytotoxicity in Huh7.5 cells, nuclei count (Example 6). Type of series: cell-based, human.
The subject of series [12] is USA WA-01 strain of SARS CoV-2. Kind of series: Anti-coronavirus activity in Vero E6 cells, qPCR of spike RNA (Example 2). It is filed as cell-based. Particulars: for Selectivity Index: CC50/EC50, Vero E6; for EC50 / EC90: MOI 0.1, 48 hours. Here is the method:
as §1

Series [13] has as its system Caco-2 cells. Kind of series: Cell viability assay CellTiter-Glo, Caco-2 cells (Example 7). Particulars: Caco-2 cells, CellTiter-Glo.
Series [14] has as its system PSC-human lung cells. The experiment in a line: Cell viability assay CellTiter-Glo, PSC-human lung cells (Example 7).
For series [15], the system named is SARS-CoV-2 isolate USA-WA1/2020. The experiment in a line: SARS-CoV-2 infection in Caco-2 cells, qRT-PCR (Example 7). It is filed as cell-based.
Series [16] has the same test system. The experiment in a line: SARS-CoV-2 infection in Calu-3 cells, qRT-PCR (Example 7). It is filed as cell-based.
The subject of series [17] is Calu-3 cells. The experiment in a line: Cell viability assay CellTiter-Glo, Calu-3 cells (Example 7). Particulars: Calu-3 cells, CellTiter-Glo.
The subject of series [18] is HFF cells. The experiment in a line: Persistence of TFVpp in HFF cells after a 3 day exposure. From the text: HFF cells were exposed to 1 micromolar drug for 3 days. At days 0, 1, 2, 4, 7, 14, 21, and 28, cells were trypsinized, counted, and processed for LC/MS measurement of TFVpp. Data were expressed at ftg/cell. nm=not meaningful; ftg—gemtogram.
Series [19] relates to human PBMCs. The experiment in a line: Cytotoxicity (CC50) in human PBMCs. Type of series: cell-based.
The nature of series [20]: 42 day pharmacokinetic study after a single IM administration in rats, formulations F3, F4, F7, F8. Type of series: in vivo. Particulars: for time with plasma levels at a virally significant level: rats, IM, only the 100 mg/kg dose, formulation F3. How it is done:
Comparison of Formulations F3, F4, F7 and F8 following a single IM administration in rats—Groups: Vehicle control, 10 mg/kg, 30 mg/kg and 100 mg/kg of formulations 3, 4, 7, 8.
Procedure: At time zero rats were injected intramuscularly with 100 microliters of vehicle and formulations as noted. […] Blood was obtained at 6, 24 and 48 hours, and at 7, 14, 28, 35 and 42 days and the plasma levels of ODE-Bn-TFV and ODE-TFV (the first metabolite, also an active anti-HIV compound) were determined by LC/MS/MS.
A 42 days pharmacokinetic study of formulations 3, 4, 7, and 8 of this example in rats was conducted. In the study, 100, 30, and 10 mg/kg of each formulation was administered by intramuscular (IM) injection to male Sprague Dawley rates (100 microliters). […] The rats were subjected to twice weekly clinical observations, and weights were collected.

Series [21] relates to HIV-1. Particulars: for EC50: HIV infected human PBMCs.
Procedure: Antiviral activities were determined in HIV infected human PBMCs.
On the set-up of series [22]: species or system beagle dogs. Particulars: dog, in vivo. How it is done:
Canine Pharmacokinetics of ODE-Bn-TFV in Formulation F3—A 30 day study in beagle dogs was done with 30 mg/kg IM doses of ODE-Bn-TFV in formulation F3.

For series [23] the following is noted: rat, in vivo.
Procedure: Maximal volume IM injections of 100 microliters were given at day 0, 30 and 60 to groups of 3 rats. There were 3 groups of control animals who received monthly injections of F3 vehicle. […] Weights were assessed over the 3-month period. […] Because a constant (maximal) IM volume of 100 microliters was given, the initial dose was 90 mg/kg and the two following injections at days 30 and 60 were lower, 62 mg/kg, due to weight increases of the rats.
The test system of series [24] is HIV-1. Particulars: Beadle et al. Antiviral Res. 2019; cited from earlier work.
The mark [25] stands for this setting: Caco-2 cells, MOI 0.01, 48 hours.

Like-named read-outs stand apart in the source and are kept apart here.

In the case of `CCCCCCCCCCCCCCCCOCCCOP(=O)(O)OC[C@H]1O[C@@](C#N)(c2ccc3c(N)ncnn23)[C@H](O)[C@@H]1O` [Compound 4b, 3-(Hexadecyloxy)propyl-phospho-RVn], the EC50 is 350 nM in [1]; 190 nM in series [3]; 190 nM in series [3] (listed as HDP-P-RVn); 960 ± 170 nM in [6]; 3020 ± 360 nM in series [7]; 630 nM in series [8]. In series [12] (Vero E6 cells), this compound had a 50% effective concentration (EC50) of 840 nM. Also, the EC90 in [1] was found to be 940 nM; in [3], 400 nM; in series [6] it was 2100 ± 780 nM; in series [7] it was 6600 ± 1140 nM; in series [8] it was 730 nM; in series [12] (Vero E6 cells), 1580 nM. Moreover, the CC50 in series [2] was > 100000 nM; in series [4], 32100 ± 17900 nM; in series [5], 51000 nM; in series [9], > 100000 nM; in series [10] it was 21000 nM; in [11], > 20000 nM. Besides, the figures for the Selectivity in series [3], in [6] and in series [8] were >526, 52 and >158, respectively. Also, in [12], the “Selectivity Index” value was found to be 25.0. The “times more active than remdesivir” value in [12] (USA WA-1 strain, Vero E6 cells) worked out at 3.3.

In the case of `CCCCCCCCCCCCCCCCCCOCCOP(=O)(O)OC[C@H]1O[C@@](C#N)(c2ccc3c(N)ncnn23)[C@H](O)[C@@H]1O` [Compound 4c, 2-(Octadecyloxy)ethyl-phospho-RVn], the Selectivity in series [1] (CC50/EC50, PSC-human lung cells) is given as >454; in series [3], >526; in [15] (CC50/EC50, Caco-2 cells), >129; in series [16] (CC50/EC50, Calu-3 cells) it was 290; in series [6] it was >212; in [8], >333. Further, the EC90 in [1] worked out at 700 nM; in [3] it was 370 nM; in series [15] (setting [25]) it was 1250 nM; in series [16] (Calu-3 cells, MOI 0.01, 48 hours) it was 640 nM; in series [6], 1100 ± 800 nM; in [7], 840 ± 95 nM. For the same compound, the concentration for an effect of 90% (EC90) in series [8] came to 330 nM; in [12] (Vero E6 cells), 530 nM. For the same compound, the EC50 in series [1] (listed as ODE-P-RVn) was determined as 220 nM; in series [3], 190 nM; in series [3] (listed as ODE-P-RVn) it was 190 nM; in [15] (setting [25]), 770 nM; in series [16] (Calu-3 cells, MOI 0.01, 48 hours, listed as ODE-P-RVn), 340 nM; in [6], 470 ± 180 nM. Further, the EC50 in series [7] stood at 410 ± 12 nM; in [8] it was 300 nM; in series [12] (Vero E6 cells) it was 350 nM. Besides, the CC50 in [2] was > 100000 nM; in series [13] it was > 100000 nM; in series [14], > 100000 nM; in series [4] it was > 50000 nM; in series [5], > 100000 nM; in series [9], > 100000 nM. In addition, the CC50 in series [10] was > 50000 nM; in series [17] it was 98700 nM; in series [11] it was > 20000 nM. For the same compound, in series [6] (based on the EC50 values, Vero E6), the “times more active than RDV” value is 9.8. For the same compound, the “Selectivity Index” value in [12] is >143.

Take “Octadecyloxyethyl benzyl tenofovir [ODE-Bn-TFV]”: in series [18], the “T1/2 of TFVpp” value was 3.7 and the “Tmax of TFVpp” value turned out to be 48 h. This compound had a CC50 in series [19] of 8720 nM. Also, the initial plasma values in series [20] (rat, in vivo) was ~100 ng/mL. Besides, the “time with plasma levels at a virally significant level” value in [20] is given as 28 days. The concentration for a half-maximal effect (EC50) in series [21] worked out at 1.7 nM. Further, the ED90 in series [21] (reference line in FIG. 12A) turned out to be 10.9 ng/mL. In addition, in series [21] (variation of the diester substituent of ODE-TFV), the “Selectivity Index” value is on record as 5130. In addition, the adverse effects result in series [22] is “no adverse effects except for some transient swelling at the injection sites”. Further, the “clinical observations, metabolic panels, CBCs” value in series [23] is given as “no clinical observations of significance”.

Consider `CCCCCCCCCCCCCCCCCCOCCOP(=O)(O)CO[C@H](C)Cn1cnc2c(N)ncnc21` [ODE-TFV], for which, in [18], the “T1/2 of TFVpp” value amounted to 1.2 and the “Tmax of TFVpp” value amounted to 0 h. In series [19], this compound displayed a CC50 of 1280 nM. In [20], the “time with plasma levels at a virally significant level” value is given as 28 days. For the same compound, in [21], the half-maximal effective concentration (EC50) was found to be 1.1 nM. This compound also yielded an ED90 in [21] (reference line in FIG. 12B) of 6.3 nm/mL. In series [24], the EC90 was 10 nM.
